Literature values as cited in US6989159B2 (JDS Pharmaceuticals, LLC, priority 2000, dated 2006).

Compound: O=C([O-])[O-].[Li+].[Li+] [Lithium carbonate]
- eliminated through urine (in vivo): More than 95%
- reabsorbed in the proximal convoluted tubule (in vivo): 80%
- time to complete absorption in the gastrointestinal tract (in vivo): about 8 hours
- concentration in the liquor compared with the plasmatic one (steady state): below 50%
- plasma half-life at the steady state (steady state): 20 to 24 h
